Key:
Assay type in all cases: cell-based, human
[1] = system: LPA1-initiated signaling in HER2-negative/PI3K//ERK/MEK/RAF/mTOR Wild-Type breast tumor cell samples; assay: impedance biosensor cell adhesion test, LPA1 agonist with RAS node inhibitors (Example 4); parameters: unit not given here
Description: Tissue and cell samples: 28 HER2-negative/PI3K//ERK/MEK/RAF/mTOR Wild-Type breast tumor cell samples were studied. […] From these responses, the net amount of LPA1-initiated signaling involving PI3K-α, Class 1 PI3K-isoforms (pan-PI3K), Class 1 PI3K-isoforms and mTOR, Bcl-xL and Bcl-2, MEK, ERK, and RAF, individually and in combination, was quantified.
In this example, 14 of the 28 patient cell samples tested recorded output values with at least one of the targeted therapeutic(s) above 250. […] Five patients would be selected to receive treatment with gedatolisib, four would be selected to receive treatment with copanlisib, one patient would be selected to receive treatment with PLX7904, six patients would be selected to receive treatment with gedatolisib and PLX7904, seven patients would be selected to receive treatment with gedatolisib and ravoxertinib, nine patients would be selected to receive treatment with gedatolisib and trametinib, and 14 patients would be selected to receive treatment with gedatolisib and navitoclax.

[2] = system: S1P-initiated signaling in HER2-negative/PI3K wild-type breast tumor cell samples; assay: impedance biosensor cell adhesion test, S1P agonist with HER2 inhibitor (Example 2); parameters: scale not given here
Description: (§1) Tissue and cell samples: Eighteen HER2-negative/PI3K wild-type breast tumor cell samples were studied.
(§2) In this example, four of the eighteen patient cell samples tested recorded output values with the targeted therapeutic, neratinib, above 500. These four patients would thus be selected to receive treatment with neratinib, even though they are HER2-negative.

[3] = system: LPA1-initiated signaling in HER2-negative/PI3K wild-type breast tumor cell samples; assay: impedance biosensor cell adhesion test, LPA1 agonist with HER2 inhibitor (Example 2); parameters: scale not given here
Description: as §1, §2

[4] = sample C1838.01.155, cut-off 250
[5] = sample C1986.01.10, cut-off 250
[6] = sample C2090.01.14, cut-off 250
[7] = sample C2169.01.10, cut-off 250
[8] = sample C3091.01.13, cut-off 250
[9] = sample C3132.01.13, cut-off 250
[10] = sample C3311.01.10, cut-off 250
[11] = sample CL021.01.869, cut-off 250

Cn1nccc1Nc1nccc(-c2ccn([C@H](CO)c3ccc(Cl)c(F)c3)c(=O)c2)n1 [ravoxertinib]
output value ([1]; sample C1816.01.6, cut-off 250): 96
output value [1, 4]: 108
output value ([1]; sample C1918.01.5, cut-off 250): 65
output value [1, 5]: 26
output value [1, 6]: 48
output value ([1]; sample C2167.01.4, cut-off 250): 7
output value [1, 7]: 14
output value ([1]; sample C2483.01.6, cut-off 250): 12
output value ([1]; sample C2693.01.2, cut-off 250): −55
output value ([1]; sample C2697.01.4, cut-off 250): 55
output value ([1]; sample C2729.01.4, cut-off 250): 10
output value ([1]; sample C2748.01.4, cut-off 250): 60
output value ([1]; sample C2792.01.2, cut-off 250): 24
output value ([1]; sample C2794.01.9, cut-off 250): −24
output value ([1]; sample C2868.01.6, cut-off 250): −36
output value ([1]; sample C2991.01.7, cut-off 250): 10
output value [1, 8]: 67
output value ([1]; sample C3101.01.6, cut-off 250): −12
output value [1, 9]: −22
output value [1, 10]: −67
output value ([1]; sample C3337.01.6, cut-off 250): 53
output value ([1]; sample C3377.01.2, cut-off 250): 0
output value ([1]; sample C3507.01.5, cut-off 250): −24
output value ([1]; sample C3730.01.9, cut-off 250): −300
output value ([1]; sample C3873.01.4, cut-off 250): 43
output value ([1]; sample C3957.01.6, cut-off 250): −5
output value ([1]; sample C4005.01.2, cut-off 250): 12
output value [1, 11]: −226

COc1c(OCCCN2CCOCC2)ccc2c1N=C(NC(=O)c1cnc(N)nc1)N1CCN=C21 [Copanlisib, copanlisib]
output value ([1]; sample C1816.01.6, cut-off 250): 374
output value [1, 4]: 10
output value ([1]; sample C1918.01.5, cut-off 250): 113
output value [1, 5]: 170
output value [1, 6]: 103
output value ([1]; sample C2167.01.4, cut-off 250): 67
output value [1, 7]: 199
output value ([1]; sample C2483.01.6, cut-off 250): 113
output value ([1]; sample C2693.01.2, cut-off 250): 46
output value ([1]; sample C2697.01.4, cut-off 250): 103
output value ([1]; sample C2729.01.4, cut-off 250): 72
output value ([1]; sample C2748.01.4, cut-off 250): 55
output value ([1]; sample C2792.01.2, cut-off 250): 98
output value ([1]; sample C2794.01.9, cut-off 250): 14
output value ([1]; sample C2868.01.6, cut-off 250): 58
output value ([1]; sample C2991.01.7, cut-off 250): 310
output value [1, 8]: 156
output value ([1]; sample C3101.01.6, cut-off 250): 70
output value [1, 9]: 38
output value [1, 10]: 430
output value ([1]; sample C3337.01.6, cut-off 250): 240
output value ([1]; sample C3377.01.2, cut-off 250): 86
output value ([1]; sample C3507.01.5, cut-off 250): 94
output value ([1]; sample C3730.01.9, cut-off 250): 511
output value ([1]; sample C3873.01.4, cut-off 250): 199
output value ([1]; sample C3957.01.6, cut-off 250): 53
output value ([1]; sample C4005.01.2, cut-off 250): 125
output value [1, 11]: −259

CCOc1cc2ncc(C#N)c(Nc3ccc(OCc4ccccn4)c(Cl)c3)c2cc1NC(=O)/C=C/CN(C)C [Neratinib, neratinib]
output value ([2]; sample C125, cut-off 500): −19
output value ([2]; sample C129, cut-off 500): 48
output value ([2]; sample C133, cut-off 500): 65
output value ([2]; sample C148, cut-off 500): −11
output value ([2]; sample C152, cut-off 500): 198
output value ([2]; sample C197, cut-off 500): 313
output value ([2]; sample C199, cut-off 500): 283
output value ([2]; sample C201, cut-off 500): −12
output value ([2]; sample C213, cut-off 500): 41
output value ([2]; sample C219, cut-off 500): −48
output value ([2]; sample C223, cut-off 500): 284
output value ([2]; sample C230, cut-off 500): 289
output value ([2]; sample C251, cut-off 500): 16
output value ([2]; sample C270, cut-off 500): 301
output value ([2]; sample C276, cut-off 500): 11
output value ([2]; sample C307, cut-off 500): 41
output value ([2]; sample C371, cut-off 500): 270
output value ([2]; sample C434, cut-off 500): −1
output value ([3]; sample C125, cut-off 500): 54
output value ([3]; sample C129, cut-off 500): 247
output value ([3]; sample C133, cut-off 500): 161
output value ([3]; sample C148, cut-off 500): 38
output value ([3]; sample C152, cut-off 500): 482
output value ([3]; sample C197, cut-off 500): 590
output value ([3]; sample C199, cut-off 500): 296
output value ([3]; sample C201, cut-off 500): 110
output value ([3]; sample C213, cut-off 500): 42
output value ([3]; sample C219, cut-off 500): 92
output value ([3]; sample C223, cut-off 500): 666
output value ([3]; sample C230, cut-off 500): 506
output value ([3]; sample C251, cut-off 500): 106
output value ([3]; sample C270, cut-off 500): 962
output value ([3]; sample C276, cut-off 500): 166
output value ([3]; sample C307, cut-off 500): 38
output value ([3]; sample C371, cut-off 500): 460
output value ([3]; sample C434, cut-off 500): 35

CCN(C)S(=O)(=O)Nc1ccc(F)c(C(=O)c2c[nH]c3ncc(-c4cnc(C5CC5)nc4)cc23)c1F [PLX7904]
output value ([1]; sample C1816.01.6, cut-off 250): 158
output value [1, 4]: −91
output value ([1]; sample C1918.01.5, cut-off 250): −5
output value [1, 5]: −19
output value [1, 6]: −38
output value ([1]; sample C2167.01.4, cut-off 250): 22
output value [1, 7]: 14
output value ([1]; sample C2483.01.6, cut-off 250): 67
output value ([1]; sample C2693.01.2, cut-off 250): −10
output value ([1]; sample C2697.01.4, cut-off 250): −2
output value ([1]; sample C2729.01.4, cut-off 250): −2
output value ([1]; sample C2748.01.4, cut-off 250): 14
output value ([1]; sample C2792.01.2, cut-off 250): 5
output value ([1]; sample C2794.01.9, cut-off 250): 36
output value ([1]; sample C2868.01.6, cut-off 250): −12
output value ([1]; sample C2991.01.7, cut-off 250): 53
output value [1, 8]: 50
output value ([1]; sample C3101.01.6, cut-off 250): 262
output value [1, 9]: 22
output value [1, 10]: −17
output value ([1]; sample C3337.01.6, cut-off 250): 58
output value ([1]; sample C3377.01.2, cut-off 250): −58
output value ([1]; sample C3507.01.5, cut-off 250): 46
output value ([1]; sample C3730.01.9, cut-off 250): −173
output value ([1]; sample C3873.01.4, cut-off 250): 89
output value ([1]; sample C3957.01.6, cut-off 250): −22
output value ([1]; sample C4005.01.2, cut-off 250): −22
output value [1, 11]: 19
